Measurements as given in publication PMC5822518 (Pharmacognosy Magazine, 2018).
“Also recorded” adds a separate entry of the source. Like-named read-outs stand apart in the source and are kept apart here.

Legend:
CYP3A4 = CYP3A4 (Homo sapiens, UniProt P08684); test: CYP3A4 fluorescence-based high throughput inhibition assay; assay type: in vitro ADME; conditions: graded by inhibition evaluation standards
CYP2E1 = CYP2E1 (Homo sapiens, UniProt P05181); test: CYP2E1 inhibition, HPLC-UV assay of 6-hydroxychlorzoxazone formation; assay type: in vitro ADME; conditions: graded by inhibition evaluation standards
CYP1A2 = molecular target: T1, CYP1A2 (Homo sapiens, UniProt P05177); test: CYP1A2 fluorescence-based high throughput inhibition assay; assay type: in vitro ADME; conditions: graded by inhibition evaluation standards
T1 sequence (P05177 1-516): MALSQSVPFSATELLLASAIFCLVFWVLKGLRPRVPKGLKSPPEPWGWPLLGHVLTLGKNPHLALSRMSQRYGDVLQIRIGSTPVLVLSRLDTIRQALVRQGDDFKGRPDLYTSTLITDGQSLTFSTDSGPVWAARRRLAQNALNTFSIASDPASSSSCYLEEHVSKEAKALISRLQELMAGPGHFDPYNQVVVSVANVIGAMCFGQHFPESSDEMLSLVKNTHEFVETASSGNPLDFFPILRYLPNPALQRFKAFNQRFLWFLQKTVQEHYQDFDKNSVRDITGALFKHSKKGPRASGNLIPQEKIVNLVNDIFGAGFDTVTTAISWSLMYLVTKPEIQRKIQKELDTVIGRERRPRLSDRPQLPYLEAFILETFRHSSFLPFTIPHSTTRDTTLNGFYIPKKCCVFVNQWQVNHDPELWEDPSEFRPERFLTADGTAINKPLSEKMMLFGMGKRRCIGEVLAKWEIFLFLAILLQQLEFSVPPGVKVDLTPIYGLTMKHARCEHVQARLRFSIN

CYP2D6 [1] = molecular target: T2, CYP2D6 (Homo sapiens, UniProt P10635); test: CYP2D6 fluorescence-based high throughput inhibition assay; assay type: in vitro ADME; conditions: graded by inhibition evaluation standards
rheumatoid arthritis = conditions: 500 mg daily for 8 weeks, 50 women with rheumatoid arthritis; cited from earlier work
CYP2C19 [2] = molecular target: T3, CYP2C19 (Homo sapiens, UniProt P33261); conditions: HLMs; cited from earlier work
CYP2C19 [3] = molecular target: T3, CYP2C19; test: CYP2C19 fluorescence-based high throughput inhibition assay; assay type: in vitro ADME; conditions: graded by inhibition evaluation standards
CYP2D6 [4] = molecular target: T2, CYP2D6; conditions: HLMs; cited from earlier work
CYP3A2 = conditions: diabetic rats, single dose TQ; cited from earlier work
[5] = cited from earlier work

T3 sequence (P33261 whole entry): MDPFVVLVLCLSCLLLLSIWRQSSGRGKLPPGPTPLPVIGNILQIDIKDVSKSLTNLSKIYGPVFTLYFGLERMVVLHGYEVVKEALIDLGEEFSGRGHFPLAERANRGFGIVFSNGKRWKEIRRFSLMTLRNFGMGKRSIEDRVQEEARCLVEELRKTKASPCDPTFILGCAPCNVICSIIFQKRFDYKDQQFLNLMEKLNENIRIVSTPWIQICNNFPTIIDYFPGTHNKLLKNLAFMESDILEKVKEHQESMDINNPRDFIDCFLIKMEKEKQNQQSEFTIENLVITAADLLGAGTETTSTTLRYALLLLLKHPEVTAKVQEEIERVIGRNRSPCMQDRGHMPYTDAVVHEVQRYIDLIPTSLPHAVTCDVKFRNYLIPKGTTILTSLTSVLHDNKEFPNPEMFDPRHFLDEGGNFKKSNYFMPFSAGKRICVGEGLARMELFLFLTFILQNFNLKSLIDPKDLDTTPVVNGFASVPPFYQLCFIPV
T2 sequence (P10635 whole entry): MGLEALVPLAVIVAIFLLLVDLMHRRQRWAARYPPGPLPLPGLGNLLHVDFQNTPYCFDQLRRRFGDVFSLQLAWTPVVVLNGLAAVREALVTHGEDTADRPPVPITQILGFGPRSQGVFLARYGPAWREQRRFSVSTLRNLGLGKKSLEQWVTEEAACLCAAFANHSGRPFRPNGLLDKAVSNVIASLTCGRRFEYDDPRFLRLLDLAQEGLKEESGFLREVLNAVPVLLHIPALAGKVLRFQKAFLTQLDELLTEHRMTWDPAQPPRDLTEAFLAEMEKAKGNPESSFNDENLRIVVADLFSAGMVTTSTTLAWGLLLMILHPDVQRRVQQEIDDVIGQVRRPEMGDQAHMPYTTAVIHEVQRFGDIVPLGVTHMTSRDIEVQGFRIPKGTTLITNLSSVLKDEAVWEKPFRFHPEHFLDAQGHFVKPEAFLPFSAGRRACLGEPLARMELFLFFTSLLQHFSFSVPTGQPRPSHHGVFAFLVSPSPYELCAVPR
CYP2E1, sequence (P05181 whole entry): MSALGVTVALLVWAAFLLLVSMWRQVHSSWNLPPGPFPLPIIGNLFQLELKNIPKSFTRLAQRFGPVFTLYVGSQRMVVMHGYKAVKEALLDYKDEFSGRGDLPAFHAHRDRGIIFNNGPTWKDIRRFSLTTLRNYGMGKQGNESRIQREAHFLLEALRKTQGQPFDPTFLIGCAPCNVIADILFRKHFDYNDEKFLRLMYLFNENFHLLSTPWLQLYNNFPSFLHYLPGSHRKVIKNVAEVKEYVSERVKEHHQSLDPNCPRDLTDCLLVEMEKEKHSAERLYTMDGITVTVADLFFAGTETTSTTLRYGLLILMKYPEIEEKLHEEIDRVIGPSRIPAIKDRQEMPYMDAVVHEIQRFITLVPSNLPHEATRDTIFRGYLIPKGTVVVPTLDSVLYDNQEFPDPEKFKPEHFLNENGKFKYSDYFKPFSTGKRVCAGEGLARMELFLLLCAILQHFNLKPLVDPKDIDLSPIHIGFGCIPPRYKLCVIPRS
CYP3A4, sequence (P08684 whole entry): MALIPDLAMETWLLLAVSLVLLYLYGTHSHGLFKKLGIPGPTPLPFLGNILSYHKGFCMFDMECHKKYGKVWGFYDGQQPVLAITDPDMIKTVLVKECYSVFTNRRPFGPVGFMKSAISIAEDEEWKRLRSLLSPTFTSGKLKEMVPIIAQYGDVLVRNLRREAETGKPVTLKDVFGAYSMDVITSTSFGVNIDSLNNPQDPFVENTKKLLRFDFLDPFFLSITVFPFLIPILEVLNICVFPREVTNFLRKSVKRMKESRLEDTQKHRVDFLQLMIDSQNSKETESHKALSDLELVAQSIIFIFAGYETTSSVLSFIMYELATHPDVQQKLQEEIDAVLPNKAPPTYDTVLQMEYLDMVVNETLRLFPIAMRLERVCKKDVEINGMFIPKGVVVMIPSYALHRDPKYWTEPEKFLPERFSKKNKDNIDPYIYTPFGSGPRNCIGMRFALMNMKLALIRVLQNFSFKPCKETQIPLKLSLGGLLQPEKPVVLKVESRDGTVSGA

Row | Compound | inhibitory effect on CYP3A4 activity (in words) (CYP3A4) | inhibitory effect on CYP2E1 activity (in words) (CYP2E1) | inhibitory effect on CYP1A2 activity (in words) (CYP1A2) | inhibitory effect on CYP2D6 activity (in words) (CYP2D6 [1]) | clinical symptoms, disease activity, hs-TNF-α and erythrocyte sedimentation rate (rheumatoid arthritis) | inhibition of CYP2C19 (in words) (CYP2C19 [2]) | inhibitory effect on CYP2C19 activity (in words) (CYP2C19 [3]) | inhibition of CYP2D6 (in words) (CYP2D6 [4]) | hepatic protein expressions of CYP3A2 enzymes (CYP3A2) | increase in t½ of glibenclamide ([5]; chronic administration of TQ) [%] | increase in AUC of glibenclamide ([5]; diabetic rats, single dose TQ) [%] | increase in t½ of glibenclamide ([5]; diabetic rats, single dose TQ) [%]
1 | O=c1c(O)c(-c2ccc(O)c(O)c2)oc2cc(O)cc(O)c12 [QR, Quercetin] | moderate to strong inhibitory effect | neither QR nor TQ has any significant inhibitory effect | neither QR nor TQ has any significant inhibitory effect | strong inhibitory effect | significant improvements | potent competitive inhibitor | moderate inhibitory effect; also recorded: moderate inhibitors | moderate competitive inhibitor | – | – | – | –
2 | CC1=CC(=O)C(C(C)C)=CC1=O [TQ, Thymoquinone] | moderate to strong inhibitory effect | neither QR nor TQ has any significant inhibitory effect | neither QR nor TQ has any significant inhibitory effect | no inhibitory effect | – | – | moderate inhibitory effect | – | marked decrease | 92 | 32.0 | 17.4
